Experimental data reported in patent publication US20240316223A1, “Oxidative Cyclization Reagents for Chemoselective Tryptophan Bioconjugation” (The Regents of the University of California, priority 2021, published 2024).
Values belong to the molecule of their own block, whether it stands above or below them. Peptide text beside a SMILES is read from it. * marks the point of attachment. Cbz = O=C(OCc1ccccc1)*

Tests used:
HeLa cells = experiment: Unfolding stress detection in living cells (desthiobiotin oxaziridine labeling, Western blot against biotin); assay type: cell-based; settings: HeLa cells treated 8 hours, lysate labeled with desthiobiotin oxaziridine (250 μM)
Description: In another application, we used Trp-CLiC as a general method to probe stress-induced protein unfolding. Indeed, under various environmental stresses, folded proteins will expose more hydrophobic residues as they unfold, and accumulation and aggregation of unfolded proteins is regarded as a signal of loss of proteostasis (34-37). Owing to its sterically demanding and hydrophobic properties, tryptophan residues are more likely to be buried in protein cores. We reasoned that this oxidative cyclization method could enable monitoring of increases in solvent accessibility of buried tryptophan residues during stress-induced protein unfolding. To test this hypothesis, we labeled lysozyme as a model protein in the presence of varying concentrations of guanidinium chloride (GdmCl) as a denaturant. […] We then used Trp-CLiC to monitor stress-induced protein unfolding in whole cell proteomes. HeLa cells were treated with the proteasome inhibitor MG-132, the ER stress inducer Tunicamycin to trigger unfolded protein stress responses, or vehicle control, then lysed and labeled with N-sulfonyl oxaziridine linked to desthiobiotin.
HeLa cells were treated with MG-132 (5 μg/ml) or Tunicamycin (5 μM) for 8 hours. Then cells were harvested and lysed in PBS buffer (1% Triton, with protease inhibitors). […] The labeling results were detected by Western blot analysis against biotin.

[1] = Selectivity and reactivity of Ac-Trp-OMe with N-sulfonyl oxaziridines (LC-MS); settings: for selectivity for the indole cycloadduct product: library screen with Ac-Trp-OMe
Description: Initial reactivity studies with the N-sulfonyl oxaziridine Ox-W1 and N-acetyl-L-tryptophan methyl ester (Ac-Trp-OMe) were then performed in PBS/organic solvent mixture for 10 min at room temperature and subjected to liquid chromatography-mass spectrometry (LC-MS) analysis. Tryptophan reacted with a ˜50% conversion. Two major products were observed: the desired indole cycloadduct and hydroxyl tryptophan. The cycloadduct was generated with 28% yield, consistent with simple indoles that can react with such oxaziridines in organic solution (28). […] We then synthesized and screened a library of 20 different oxaziridines for Trp-CLiC chemistry; Ox-W10, Ox-W17, and Ox-W19 emerged as the top lead candidates with improved ˜90% selectivity and high reactivity for the indole cycloadduct product, with a measured reaction rate of 24.9±1.3M^−1 s^−1 that is on par with click chemistry reactions (29-31).
A stock solution of Ac-Trp-OMe (100 mM) in MeOH was mixed with oxaziridine (100 mM) in MeOH (v/v ratio=1:1.2), followed by the immediate addition of PBS (1 volume equiv. to make 1:1 PBS/MeOH). For some oxaziridines with low solubility, the reaction was performed in PBS/MeOH/MeCN (1:1:1) co-solvent. […] It is important the initial stock solutions of Ac-Trp-OMe and oxaziridine are fully homogeneous prior to mixing.
For LC-MS analysis, solvent A was water and solvent B was methanol. The linear gradient was 40-100% B in 6.5 min and 100% B for 1.5 min.

[2] = Reaction of oxaziridine with methionine
[3] = Kinetics of the Trp-CLiC reaction (absorbance at 280 nm, UV-Vis); settings: PBS buffer, 25° C.
Description: For kinetics study of the Trp-CLiC reaction, the absorbance at 280 nm was time-dependently monitored by UV-Vis upon adding Ox-W18 (50 μM) into different concentrations of Ac-Trp-OMe (500 μM, 550 μM and 600 μM) in PBS buffer at 25° C. Then the second-order reaction rate constant could be obtained.

GLP-1 = GLP-1 (Homo sapiens, UniProt P01275); experiment: Oxaziridine screening on peptides: GLP-1 (Q-TOF); assay type: biochemical; settings: GLP-1 (50 μM), oxaziridine (300 μM)
GLP-1, sequence (P01275 92-128 limits assumed): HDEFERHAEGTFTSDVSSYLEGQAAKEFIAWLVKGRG
Description: Peptides were dissolved in 5% DMSO solution. […] The labeled peptides were subjected to Q-TOF analysis with a Proswift RP-4H (monolithic phenyl, 1.0 mm×50 mm, Dionex) column. The Solvent A was MilliQ water with 0.1% (v/v) formic acid, while the Solvent B was ACN with 0.1% (v/v) formic acid. The LC system was set at the 0.30 mL/min with a gradient of 5-100% solvent B in solvent A over 8 min. MassHunter Quantitative Analysis Version software was used for ion chromatogram extraction and Maximum Entropy deconvolution.

HEK 293T cell lysates = experiment: Activity-based protein profiling (ABPP) of hyperreactive tryptophan sites; assay type: biochemical, human; settings: identified in more than two replicates
Description: We next moved on to apply Trp-CLiC at the whole proteome level, specifically to identify new functional tryptophan sites in cells using activity-based protein profiling (ABPP).
From the ABPP studies with the Trp-CLiC method, 190 unique hyperreactive tryptophan sites from 151 probe-modified proteins were identified in more than two replicates. These Ox-W18-labeled tryptophan sites were found in many classes of proteins, including enzymes, chaperones, and nucleoproteins, as well as many structural proteins. Meanwhile, we noticed that many targets are classified as non-druggable and highly enriched in diverse phase-separated compartments, such as the nucleolus, nuclear body, paraspeckle and stress granule. […] For example, the hyperreactive W196 site identified on GAPDH, W346 site found on TBA1B, and W324 and W148 on LDHA enzyme are the most surface-exposed tryptophan residues in these proteins, whereas other tryptophan residues were not probed. […] GAPDH and TBA1B were chosen as representative examples to showcase the Trp-CLiC method for ABPP. […] We then sought to further investigate the character of probed solvent-accessible tryptophan sites by performing motif analysis. […] Lysine is hydrophilic and has the capacity to form cation-π interactions with the indole tryptophan ring, providing a potential pathway for stabilizing hydrophobic tryptophan residues being surface-exposed (38, 39). […]

GAPDH and TBA1B = GAPDH and TBA1B labeling by Western Blot; assay type: biochemical
Description: From the ABPP studies with the Trp-CLiC method, 190 unique hyperreactive tryptophan sites from 151 probe-modified proteins were identified in more than two replicates. These Ox-W18-labeled tryptophan sites were found in many classes of proteins, including enzymes, chaperones, and nucleoproteins, as well as many structural proteins. Meanwhile, we noticed that many targets are classified as non-druggable and highly enriched in diverse phase-separated compartments, such as the nucleolus, nuclear body, paraspeckle and stress granule. […] For example, the hyperreactive W196 site identified on GAPDH, W346 site found on TBA1B, and W324 and W148 on LDHA enzyme are the most surface-exposed tryptophan residues in these proteins, whereas other tryptophan residues were not probed. […] GAPDH and TBA1B were chosen as representative examples to showcase the Trp-CLiC method for ABPP. […] We then sought to further investigate the character of probed solvent-accessible tryptophan sites by performing motif analysis. […] Lysine is hydrophilic and has the capacity to form cation-π interactions with the indole tryptophan ring, providing a potential pathway for stabilizing hydrophobic tryptophan residues being surface-exposed (38, 39).

lysozyme = lysozyme (Gallus gallus, UniProt P00698); experiment: Lysozyme labelling with Ox-W18 (A260/A280 ratio, LC-MS/MS); settings: native folded conditions
lysozyme, sequence (P00698 19-147): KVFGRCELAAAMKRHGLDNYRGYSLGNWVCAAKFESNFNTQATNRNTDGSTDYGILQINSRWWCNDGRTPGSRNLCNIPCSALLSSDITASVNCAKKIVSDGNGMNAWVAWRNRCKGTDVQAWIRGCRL

IL8 = target: T1, IL8 (Homo sapiens, UniProt P10145); experiment: Protein labelling with N-sulfonyl oxaziridine: IL8 (LC-MS/MS); settings: native vs denaturant-treated IL8
T1 sequence (P10145 21-99): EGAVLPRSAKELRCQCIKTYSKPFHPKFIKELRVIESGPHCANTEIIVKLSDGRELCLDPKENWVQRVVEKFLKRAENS

[4] = Ac-Trp-OMe, PBS/organic solvent mixture, 10 min, room temperature

Molecule: CC(C)C[C@@H](C=O)NC(=O)[C@H](CC(C)C)NC(=O)[C@H](CC(C)C)NC(=O)OCc1ccccc1 [MG-132] (Cbz-Leu-Leu-Leu-aldehyde)
desthiobiotin staining signal vs vehicle control (HeLa cells): more desthiobiotin staining signal

Molecule: CS(=O)(=O)N1OC1c1ccccc1 (stereo not drawn) [Ox-W1]
Tryptophan conversion [1, 4]: ~50% | indole cycloadduct yield [1, 4]: 28% | product of reaction with methionine [2]: traceless methionine sulfoxide adduct

Molecule: COc1ccc(S(=O)(=O)N2OC2c2ccc([N+](=O)[O-])cc2[N+](=O)[O-])cc1 (stereo not drawn) [Ox-W10]
selectivity for the indole cycloadduct product [1]: ~90% | measured reaction rate (second-order rate constant) [3]: 24.9 ± 1.3 M⁻¹ s⁻¹

Molecule: C#Cc1ccc(S(=O)(=O)N2OC2c2ccccc2[N+](=O)[O-])cc1 (stereo not drawn) [Ox-W17]
selectivity for the indole cycloadduct product [1]: ~90% | measured reaction rate (second-order rate constant) [3]: 24.9 ± 1.3 M⁻¹ s⁻¹

conversion (GLP-1): quantitative | cycloadduct yield (GLP-1): 74% | A260/A280 ratio (lysozyme): 0.80
Molecule: C#CCN(C)S(=O)(=O)N1OC1c1ccccc1[N+](=O)[O-] (stereo not drawn) [Ox-W18]
probe-modified proteins identified (HEK 293T cell lysates): 151 | unique hyperreactive tryptophan sites identified (HEK 293T cell lysates): 190 | GAPDH and TBA1B labeling with increased probe addition (GAPDH and TBA1B): more GAPDH and TBA1B labeling | modification of the partially buried tryptophan site (IL8): modified only after treatment with a denaturant

Molecule: C#CCN(C)S(=O)(=O)N1OC1c1ccc([N+](=O)[O-])cc1[N+](=O)[O-] (stereo not drawn) [Ox-W19]
selectivity for the indole cycloadduct product [1]: ~90% | measured reaction rate (second-order rate constant) [3]: 24.9 ± 1.3 M⁻¹ s⁻¹

Molecule: Tunicamycin
desthiobiotin staining signal vs vehicle control (HeLa cells): more desthiobiotin staining signal
